# Reference: ChEMBL document CHEMBL5584314, “Identification of an m6A Natural Inhibitor, Lobeline, That Reverses Lenvatinib Resistance in Hepatocellular Tumors” (J Nat Prod, 2024)
# Active and inactive are the calls of the source. The rule behind the calls is not given here.
# Columns and labels:
# [1] = target: N6-adenosine-methyltransferase catalytic subunit (Homo sapiens) (UniProt Q86U44); experiment: Binding affinity to METTL3 in human Huh-7 cells assessed as thermal stability at 44 to 64 degreeC at 2 uM incubated for 30 mins followed by […] analysis; assay type: cell-based
# Chain of N6-adenosine-methyltransferase catalytic subunit (Homo sapiens) (Q86U44 whole entry): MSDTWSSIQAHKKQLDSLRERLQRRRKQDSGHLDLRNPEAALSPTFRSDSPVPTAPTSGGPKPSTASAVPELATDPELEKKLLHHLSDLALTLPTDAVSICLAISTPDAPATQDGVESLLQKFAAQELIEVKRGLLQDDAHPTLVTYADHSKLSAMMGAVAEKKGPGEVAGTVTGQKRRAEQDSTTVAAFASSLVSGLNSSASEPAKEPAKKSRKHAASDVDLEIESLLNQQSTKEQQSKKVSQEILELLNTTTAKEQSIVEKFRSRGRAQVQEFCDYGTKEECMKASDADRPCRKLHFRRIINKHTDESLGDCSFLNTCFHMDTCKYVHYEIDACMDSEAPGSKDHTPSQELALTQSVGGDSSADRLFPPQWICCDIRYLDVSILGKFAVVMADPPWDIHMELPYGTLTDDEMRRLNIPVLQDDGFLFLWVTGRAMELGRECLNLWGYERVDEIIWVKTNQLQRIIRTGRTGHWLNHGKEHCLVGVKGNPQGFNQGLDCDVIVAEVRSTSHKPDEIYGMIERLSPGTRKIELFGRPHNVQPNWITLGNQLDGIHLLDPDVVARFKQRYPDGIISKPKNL
# [2] = target: N6-adenosine-methyltransferase catalytic subunit (Homo sapiens) (UniProt Q86U44); experiment: Inhibition of METTL3 in human Lenvatinib-resistant Huh7/Len cells assessed as effect on FGFR3 mRNA expression level at 2 uM incubated for 72 hrs by RT-PCR analysis; assay type: cell-based
# [3] = target: N6-adenosine-methyltransferase catalytic subunit (Homo sapiens) (UniProt Q86U44); experiment: Inhibition of METTL3 in human Lenvatinib-resistant Huh7/Len cells assessed as effect on TET1 mRNA expression level at 2 uM incubated for 72 hrs by RT-PCR analysis; assay type: cell-based
# [4] = target: N6-adenosine-methyltransferase catalytic subunit (Homo sapiens) (UniProt Q86U44); experiment: Inhibition of METTL3 in human Lenvatinib-resistant Huh7/Len cells assessed as effect on IFIT2 mRNA expression level at 2 uM incubated for 72 hrs by RT-PCR analysis; assay type: cell-based
# [5] = target: N6-adenosine-methyltransferase catalytic subunit (Homo sapiens) (UniProt Q86U44); experiment: Inhibition of METTL3 in human Lenvatinib-resistant Huh7/Len cells assessed as effect on EZH2 mRNA expression level at 2 uM incubated for 72 hrs by RT-PCR analysis; assay type: cell-based
# [6] = target: N6-adenosine-methyltransferase catalytic subunit (Homo sapiens) (UniProt Q86U44); experiment: Inhibition of METTL3 in human Lenvatinib-resistant Huh7/Len cells assessed as effect on IFFO1 mRNA expression level at 2 uM incubated for 72 hrs by RT-PCR analysis; assay type: cell-based
# [7] = target: N6-adenosine-methyltransferase catalytic subunit (Homo sapiens) (UniProt Q86U44); experiment: Inhibition of METTL3 in human Lenvatinib-resistant Huh7/Len cells assessed as effect on NPCL1 mRNA expression level at 2 uM incubated for 72 hrs by RT-PCR analysis; assay type: cell-based
# [8] = target: N6-adenosine-methyltransferase catalytic subunit (Homo sapiens) (UniProt Q86U44); experiment: Inhibition of METTL3 in human Lenvatinib-resistant Huh7/Len cells assessed as effect on DEK mRNA expression level at 2 uM incubated for 72 hrs by RT-PCR analysis; assay type: cell-based
# [9] = target: N6-adenosine-methyltransferase catalytic subunit (Homo sapiens) (UniProt Q86U44); experiment: Inhibition of METTL3 in human Lenvatinib-resistant Huh7/Len cells assessed as effect on MYC mRNA expression level at 2 uM incubated for 72 hrs by RT-PCR analysis; assay type: cell-based
# [10] = target: N6-adenosine-methyltransferase catalytic subunit (Homo sapiens) (UniProt Q86U44); experiment: Inhibition of METTL3 in human Lenvatinib-resistant Huh7/Len cells assessed as effect on SLC7A11 mRNA expression level at 2 uM incubated for 72 hrs by RT-PCR analysis; assay type: cell-based
# [11] = target: N6-adenosine-methyltransferase catalytic subunit (Homo sapiens) (UniProt Q86U44); experiment: Inhibition of METTL3 in human Lenvatinib-resistant Huh7/Len cells assessed as effect on UCK2 mRNA expression level at 2 uM incubated for 72 hrs by RT-PCR analysis; assay type: cell-based
# [12] = target: N6-adenosine-methyltransferase catalytic subunit (Homo sapiens) (UniProt Q86U44); experiment: Inhibition of METTL3 in human Lenvatinib-resistant Huh7/Len cells assessed as effect on CTSL mRNA expression level at 2 uM incubated for 72 hrs by RT-PCR analysis; assay type: cell-based
# [13] = target: N6-adenosine-methyltransferase catalytic subunit (Homo sapiens) (UniProt Q86U44); experiment: Inhibition of METTL3 in human Lenvatinib-resistant Huh7/Len cells assessed as effect on GATA3 mRNA expression level at 2 uM incubated for 72 hrs by RT-PCR analysis; assay type: cell-based
# [14] = test system: Lenvatinib-resistant Huh7/Len; experiment: Antiproliferative activity against human Lenvatinib-resistant Huh7/Len cells assessed as inhibition of cell viability up to 40 uM after 72 hrs by CCK-8 assay; assay type: functional, cell-based
# [15] = test system: Lenvatinib-resistant Hep3B/Len; experiment: Antiproliferative activity against human Lenvatinib-resistant Hep3B/Len cells assessed as inhibition of cell viability up to 40 uM after 72 hrs by CCK-8 assay; assay type: functional, cell-based
# [16] = test system: Lenvatinib-resistant Hep3B/Len; experiment: Antiproliferative activity against human Lenvatinib-resistant Hep3B/Len cells assessed as inhibition of clone formation ability at 5 uM preincubated for 72 hrs and measured after 7 to 10 days by crystal violet staining based assay; assay type: functional, cell-based; settings: time 10-13 day
# [17] = test system: Lenvatinib-resistant Hep3B/Len; experiment: Antiproliferative activity against human Lenvatinib-resistant Hep3B/Len cells assessed as inhibition of clone formation ability at 5 uM preincubated for 72 hrs and measured after 7 to 10 days in presence of lenvatinib by crystal violet staining based assay; assay type: functional, cell-based; settings: time 10-13 day
# [18] = test system: Lenvatinib-resistant Huh7/Len; experiment: Antitumor activity against human Lenvatinib-resistant Huh7/Len cells xenografted in BALB/c nude mouse assessed as inhibition of tumor volume at 1.5 mg/kg, ip cotreated with lenvatinib 5 times per week for 3 weeks relative to control; assay type: functional; settings: 504 h
# [19] = Toxicity in BALB/c nude mouse xenografted with human Lenvatinib-resistant Huh7/Len cells assessed as changes in organ index at 1.5 mg/kg, ip administered 5 times per week for 3 weeks; assay type: organism-based; settings: in vivo, 504 h
# [20] = Toxicity in BALB/c nude mouse xenografted with human Lenvatinib-resistant Huh7/Len cells assessed as changes in organ index at 1.5 mg/kg, ip cotreated with lenvatinib 5 times per week for 3 weeks; assay type: organism-based; settings: in vivo, 504 h
# [21] = test system: Lenvatinib-resistant Huh7/Len; experiment: Antitumor activity against human Lenvatinib-resistant Huh7/Len cells xenografted in BALB/c nude mouse assessed as reduction in METTL3 protein expression at 1.5 mg/kg, ip 5 times per week for 3 weeks by Western blot assay; assay type: functional, organism-based
# [22] = test system: Lenvatinib-resistant HCC/Len; experiment: Antitumor activity against human Lenvatinib-resistant HCC/Len cells xenografted in BALB/c nude mouse model of PDX assessed as tumor growth inhibition at 1.5 mg/kg, ip cotreated with lenvatinib 5 times per week for 3 weeks; assay type: functional, organism-based
# [23] = test system: Lenvatinib-resistant HCC/Len; experiment: Antitumor activity against human Lenvatinib-resistant HCC/Len cells xenografted in BALB/c nude mouse model of PDX assessed as inhibition of tumor volume at 1.5 mg/kg, ip cotreated with lenvatinib 5 times per week for 3 weeks; assay type: functional; settings: 504 h
# [24] = Toxicity in BALB/c nude mouse PDX model xenografted with human Lenvatinib-resistant HCC/Len cells assessed as changes in body weight at 1.5 mg/kg, ip administered 5 times per week for 3 weeks; assay type: organism-based; settings: in vivo, 504 h
# [25] = Toxicity in BALB/c nude mouse PDX model xenografted with human Lenvatinib-resistant HCC/Len cells assessed as changes in organ index at 1.5 mg/kg, ip administered 5 times per week for 3 weeks; assay type: organism-based; settings: in vivo, 504 h
# [26] = Toxicity in BALB/c nude mouse PDX model xenografted with human Lenvatinib-resistant HCC/Len cells assessed as changes in organ index at 1.5 mg/kg, ip cotreated with lenvatinib 5 times per week for 3 weeks; assay type: organism-based; settings: in vivo, 504 h
# [27] = test system: Lenvatinib-resistant HCC/Len; experiment: Antitumor activity against human Lenvatinib-resistant HCC/Len cells xenografted in BALB/c nude mouse model of PDX assessed as reduction in METTL3 protein expression at 1.5 mg/kg, ip 5 times per week for 3 weeks by Western blot assay; assay type: functional, organism-based
# [28] = test system: Lenvatinib-resistant HCC/Len; experiment: Antitumor activity against human Lenvatinib-resistant HCC/Len cells xenografted in BALB/c nude mouse model of PDX assessed as reduction in Ki-67 protein expression in tumor tissue at 1.5 mg/kg, ip cotreated with lenvatinib 5 times per week for 3 weeks by immunohistochemistry analysis relative to control; assay type: functional, organism-based
# [29] = test system: Lenvatinib-resistant HCC/Len; experiment: Antitumor activity against human Lenvatinib-resistant HCC/Len cells xenografted in BALB/c nude mouse model of PDX assessed as reduction in m6A expression in tumor tissue at 1.5 mg/kg, ip cotreated with lenvatinib 5 times per week for 3 weeks by immunohistochemistry analysis relative to control; assay type: functional, organism-based
# [30] = test system: Lenvatinib-resistant Huh7/Len; experiment: Anticancer activity against human Lenvatinib-resistant Huh7/Len cells assessed as reduction in UBE3B mRNA expression at 2 uM by qPCR analysis; assay type: functional, cell-based
smiles,measurement,setting,value
CN1[C@@H](CC(=O)c2ccccc2)CCC[C@H]1C[C@H](O)c1ccccc1 [LOBELINE],Activity,[1],Active
same,inhibition,[2],Active
same,inhibition,[3],Active
same,inhibition,[4],Active
same,inhibition,[5],Active
same,inhibition,[6],Active
same,inhibition,[7],Active
same,inhibition,[8],Active
same,inhibition,[9],Active
same,inhibition,[10],Active
same,inhibition,[11],Active
same,inhibition,[12],Active
same,inhibition,[13],Active
same,inhibition,[14],Active
same,inhibition,[15],Active
same,inhibition,[16],inactive
same,inhibition,[17],inactive
same,inhibition in vivo at 1.5 mg/kg,[18],68%
same,Activity,[19],Non-Toxic
same,Activity,[20],Non-Toxic
same,Activity,[21],inactive
same,TGI,[22],Active
same,inhibition in vivo at 1.5 mg/kg,[23],60%
same,Activity,[24],Non-Toxic
same,Activity,[25],Non-Toxic
same,Activity,[26],Non-Toxic
same,Activity,[27],inactive
same,Activity,[28],Active
same,Activity,[29],Active
same,Activity,[30],Active
